Experiments:
[1] = Antioxidant activity assessed as superoxide radical scavenging activity at 10 '-4 M measured for 3 min by spectrophotometry relative to control; type: functional
Liver [2] = test: Antioxidant activity in Rattus norvegicus (rat) liver homogenate assessed as inhibition of lipid peroxidation measuring TBARS production at 10 '-4 M after 1 hr by spectrophotometry relative to control; type: functional, tissue-based
Liver [3] = test: Antioxidant activity in Rattus norvegicus (rat) liver homogenate assessed as inhibition of lipid peroxidation measuring TBARS production at 10 '-3 M after 1 hr by spectrophotometry relative to control; type: functional, tissue-based
[4] = Antioxidant activity assessed as superoxide radical scavenging activity at 10 '-3 M measured for 3 min by spectrophotometry relative to control; type: functional

SMILES	Superoxide level, % of control [1] [%]	TBARS production (% of control) (Liver [2]) [%]	inhibition (Liver [3]) [%]	Activity [4] [%]
CCN(CC)CCCNC(=O)CCc1c[nH]c2ccccc12	108	96	31	90
COc1ccc2[nH]cc(CCNC(C)=O)c2c1	90	93	28	84
CN(C)CCNC(=O)CCc1c[nH]c2ccccc12	94	101	28	83
CCN(CC)CCNC(=O)CCc1c[nH]c2ccccc12	102	51	26	91
CCCNC(=O)CCc1c[nH]c2ccccc12	100	102	28	94
CCCCCNC(=O)CCc1c[nH]c2ccccc12	103	94	25	87
Cc1c(C)c2c(c(C)c1O)CC[C@@](C)(CCC[C@H](C)CCC[C@H](C)CCCC(C)C)O2	83	46	27	14
CCCCNC(=O)CCc1c[nH]c2ccccc12	104	100	28	85
COC(=O)CCc1c[nH]c2ccccc12	54	114	56	70
CN(C)CCCNC(=O)CCc1c[nH]c2ccccc12	98	102	27	98

Reference: ChEMBL document CHEMBL3045337, “A Comparative Study: Evaluation of Antioxidant Activity of Melatonin and Some Indole Derivatives” (Med Chem Res, 2005)
